According to US12053480B2, “Methods and pharmaceutical compositions for treating peripheral demyelinating diseases” (INSERM (INSTITUT NATIONAL DE LA SANTE ET DE LA RECHERCHE …, priority 2015, dated 2024):
Entries after “also recorded” stand apart in the source; their conditions may differ.

How the values were obtained:
VDAC1 [1] = biological target: T1, VDAC1 (Mus musculus, UniProt Q60932); test: Mitochondrial calcium imaging (mito-GCaMP2, multiphoton) in mSC of mouse sciatic nerve, nerve crush model; format: in vivo; conditions: mito-GCaMP2; VDAC1 silenced or drug given before crush
T1 construct: strongly expressed in mSC mitochondria; from tissue; host or cells: myelinating Schwann cells (mSC) of the sciatic nerve of living mice (wild type; db/db and +/db in A10)
Experimental: (§1) Mice were anesthetized with isoflurane inhalation and placed under a Stemi2000 microscope (Zeiss). Incision area was shaved and cleaned using betadine solution. After incision, the gluteus superficialis and biceps femoris muscles were separated to reveal the cavity traversed by the sciatic nerve. The nerve was lift out using spatula and a thin glass needle filled with viral solution (8 μl) was introduced into the nerve with a micromanipulator. This solution was injected over 30 min with short pressure pulses using a Picospritzer III (Parker Hannifin) coupled to a pulse generator. After injection, the nerve was replaced into the cavity, the muscles were readjusted, and the wound was closed using clips (for further details see Gonzalez et al., 2014^3).
(§2) TRO19622 drug (Tocris bioscience, Ref. 2906) was diluted in ethanol to 20 mM and then, the solution was diluted in sterile PBS to 20 μM. TRO19622 treatments were realized by 3 mg/kg intraperitoneal (IP) injections of 20 mM solution or by intra sciatic nerve injections of 2 μl of drug solution 2 μM using a Hamilton syringe or a glass needle in sterile conditions 30 minutes before multiphoton image acquisitions or immunohistochemistry and demyelination studies respectively. Methyl jasmonate drug (Sigma-Aldrich, Ref. 392707) was diluted in 1 ml of sterile PBS to 1M or 3M. Methyl jasmonate treatments were realized by intra sciatic nerve injections of 1 μl of drug solution using a glass needle and micromanipulator in sterile conditions following the same virus injections procedure (see in vivo virus injection in the sciatic nerve method) two hours before multiphoton image acquisition. […] All drug concentrations were previously evaluated by Bordet et al, 2007^5; Goldin et al, 2008^6; Sharov et al, 2007^7.
First injected mouse was anesthetized with 5% of isoflurane a 1.5% of oxygen into the anesthesia system box (World Precision Instruments, Ref. EZ-B800) for 5 minutes. Anesthesia controls were realized^8. Then, mouse was placed in anesthesia mask and the incision area was shaved and cleaned with betadine and ethanol 70% solution. Incision was realized using a scalpel and the skin was retracted using forceps in order to expose the gluteus superficialis and bleeps femoris muscles. Next, the connective tissue that connects both muscles was cut and the sciatic nerve was gently lifted out using a spatula. A flexible bridge was slide below sciatic nerve and it was placed into a plastic first pool fixed to the bridge. Mouse was placed under the multiphoton microscope, the bridge was fixed using magnetic brackets to avoid physiological movement and mouse legs were fixed using clippers. Microscope dark box temperature is controlled to 37° C. during all time-lapse imaging. Finally, a second pool was fixed to the first pool using a drop of agarose low melting 3% (Promega, Ref. V2111) in Leibovitz's L15 medium (Gibco Life Technologies) and filled with deionized water to immerse the objectives 20× or 63× (Carl Zeiss Microscopy).
All time-lapse images were obtained with a multiphoton microscope Zeiss LSM 7 MP OPO. Mitochondria motility images were acquired by time-lapse recording of one image every five minutes during five hours at 920 nm. GCaMP2 and SypHer probe images were acquired by time-lapse recording of one image every fifteen minutes during five hours at 985 nm. Images were acquired to constant 1% of laser intensity to 100 msec of acquisition time with 512×512 resolution and 10 images of z-stack of 20 μm. Images were saved in Zeiss .czi format and processed using Image J program. For further details see Gonzalez et al., 201X^8
To characterize mitochondria physiology during the demyelination process we combined two in vivo methods. We used the nerve crush model to reliably induce demyelination in the mouse sciatic nerve and a viral approach^19 allowing the expression of different fluorescent probes selectively into mitochondria of myelinating Schwann cells (mSC) in mouse sciatic nerve.

mSC mitochondria = test: Mitochondrial pH imaging (mito-SypHer) in mSC of mouse sciatic nerve; format: in vivo; conditions: after nerve crush
Experimental: as §1, §2
First injected mouse was anesthetized with 5% of isoflurane a 1.5% of oxygen into the anesthesia system box (World Precision Instruments, Ref. EZ-B800) for 5 minutes. Anesthesia controls were realized^8. Then, mouse was placed in anesthesia mask and the incision area was shaved and cleaned with betadine and ethanol 70% solution. […]

[2] = test system: phospho-ERK1/2, phospho-p38, phospho-JNK and phospho-c-jun; test: Western blot of demyelination signaling pathways in sciatic nerve after crush or MJ; format: in vivo, mouse; conditions: western blot 4 and 12 hours after crush; treated before crush
Experimental: as §2

VDAC1 [3] = biological target: T1, VDAC1; test: Fluorescent probe imaging of mSC mitochondria in diabetic db/db mice, basal conditions; format: in vivo
Experimental: as §1
TRO19622 drug (Tocris bioscience, Ref. 2906) was diluted in ethanol to 20 mM and then, the solution was diluted in sterile PBS to 20 μM. TRO19622 treatments were realized by 3 mg/kg intraperitoneal (IP) injections of 20 mM solution or by intra sciatic nerve injections of 2 μl of drug solution 2 μM using a Hamilton syringe or a glass needle in sterile conditions 30 minutes before multiphoton image acquisitions or immunohistochemistry and demyelination studies respectively. […] All drug concentrations were previously evaluated by Bordet et al, 2007^5; Goldin et al, 2008^6; Sharov et al, 2007^7. […]

T1 sequence (Q60932 14-296): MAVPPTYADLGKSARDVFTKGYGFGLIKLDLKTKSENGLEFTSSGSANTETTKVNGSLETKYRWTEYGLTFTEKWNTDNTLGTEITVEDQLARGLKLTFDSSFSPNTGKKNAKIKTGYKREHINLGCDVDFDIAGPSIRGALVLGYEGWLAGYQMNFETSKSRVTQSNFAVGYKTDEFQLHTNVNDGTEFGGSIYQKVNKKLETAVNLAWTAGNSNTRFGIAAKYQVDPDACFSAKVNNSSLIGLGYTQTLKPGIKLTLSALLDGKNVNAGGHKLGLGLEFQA

- mitochondrial motility (VDAC1 [3]): increased
- mitochondrial pH (VDAC1 [3]): significantly reduced
SMILES: CC(C)CCC[C@@H](C)[C@H]1CC[C@H]2[C@@H]3CCC4=C/C(=N\O)CC[C@]4(C)[C@H]3CC[C@]12C [TRO19622, (NZ)—N-[(8S,9S,10R,13R,14S,17R)-10,13-dimethyl-17-[(2R)-6-methylheptan-2-yl]-1,2,6,7,8,9,11,12,14,15,16,17-dodecahydrocyclopenta[a]phenanthren-3-ylidene]hydroxylamine]
- mitochondrial calcium release in mSC after nerve crush (VDAC1 [1]): able to block calcium release from mitochondria; also recorded: completely abolished; also recorded: blocks mitochondrial calcium release
- changes induced by nerve crush in mitochondrial pH not abrogated (mSC mitochondria): 12%
- increase in phospho-ERK1/2, phospho-p38, phospho-JNK and phospho-c-jun after nerve crush [2]: strongly reduced
